Results taken from patent USRE38117E1, “Trioxane dimer compound having antiproliferative and antitumor activities” (Hauser, Inc., priority 1995, dated 2003).

What was measured:
Type in all cases: cell-based
[1] = test system: CCRF-CEM; experiment: NCI 60 cell line screen (SRB), Leukemia
[2] = test system: K-562; experiment: NCI 60 cell line screen (SRB), Leukemia; settings: K-562 (Leukemia)
[3] = test system: MOLT-4; experiment: NCI 60 cell line screen (SRB), Leukemia
[4] = test system: RPMI-8226; experiment: NCI 60 cell line screen (SRB), Leukemia; settings: RPMI-8226 (Leukemia)
[5] = test system: SR; experiment: NCI 60 cell line screen (SRB), Leukemia
[6] = test system: A549/ATCC; experiment: NCI 60 cell line screen (SRB), Non-Small Cell Lung Cancer
[7] = test system: HOP-62; experiment: as above; settings: HOP-62 (Non-Small Cell Lung Cancer)
[8] = test system: NCI-H226; experiment: as above
[9] = test system: NCI-H322M; experiment: as above
[10] = test system: NCI-H522; experiment: as above
[11] = test system: COLO 205; experiment: NCI 60 cell line screen (SRB), Colon Cancer; settings: COLO 205 (Colon Cancer)
[12] = test system: HCT-116; experiment: NCI 60 cell line screen (SRB), Colon Cancer; settings: HCT-116 (Colon Cancer)
[13] = test system: HT29; experiment: NCI 60 cell line screen (SRB), Colon Cancer
[14] = test system: KM12; experiment: NCI 60 cell line screen (SRB), Colon Cancer
[15] = test system: SW-620; experiment: NCI 60 cell line screen (SRB), Colon Cancer; settings: SW-620 (Colon Cancer)
[16] = test system: SF-268; experiment: NCI 60 cell line screen (SRB), CNS Cancer; settings: SF-268 (CNS Cancer)
[17] = test system: SF-295; experiment: NCI 60 cell line screen (SRB), CNS Cancer; settings: SF-295 (CNS Cancer)
[18] = test system: SNB-75; experiment: NCI 60 cell line screen (SRB), CNS Cancer; settings: SNB-75 (CNS Cancer)
[19] = test system: U251; experiment: NCI 60 cell line screen (SRB), CNS Cancer
[20] = test system: M14; experiment: NCI 60 cell line screen (SRB), Melanoma
[21] = test system: SK-MEL-28; experiment: NCI 60 cell line screen (SRB), Melanoma; settings: SK-MEL-28 (Melanoma)
[22] = test system: SK-MEL-5; experiment: NCI 60 cell line screen (SRB), Melanoma; settings: SK-MEL-5 (Melanoma)
[23] = test system: UACC-62; experiment: NCI 60 cell line screen (SRB), Melanoma; settings: UACC-62 (Melanoma)
[24] = test system: OVCAR-4; experiment: NCI 60 cell line screen (SRB), Ovarian Cancer; settings: OVCAR-4 (Ovarian Cancer)
[25] = test system: OVCAR-5; experiment: NCI 60 cell line screen (SRB), Ovarian Cancer; settings: OVCAR-5 (Ovarian Cancer)
[26] = test system: 786-0; experiment: NCI 60 cell line screen (SRB), Renal Cancer; settings: 786-0 (Renal Cancer)
[27] = test system: A498; experiment: NCI 60 cell line screen (SRB), Renal Cancer
[28] = test system: CAKI-1; experiment: NCI 60 cell line screen (SRB), Renal Cancer; settings: CAKI-1 (Renal Cancer)
[29] = test system: UO-31; experiment: NCI 60 cell line screen (SRB), Renal Cancer; settings: UO-31 (Renal Cancer)
[30] = test system: PC-3; experiment: NCI 60 cell line screen (SRB), Prostate Cancer; settings: PC-3 (Prostate Cancer)
[31] = test system: MDA-MB-435; experiment: NCI 60 cell line screen (SRB), Breast Cancer; settings: MDA-MB-435 (Breast Cancer)
[32] = test system: MDA-N; experiment: NCI 60 cell line screen (SRB), Breast Cancer
[33] = test system: T-47D; experiment: NCI 60 cell line screen (SRB), Breast Cancer; settings: T-47D (Breast Cancer)
[34] = MOLT-4 (Leukemia), listed as Metaphtalate Dimer
[35] = MOLT-4 (Leukemia), listed as metaphthalate dimer

For COC1OC2(C)CCC3CCCC(CCOC(=O)c4cccc(C(=O)OCCC5CCCC6CCC7(C)OOC56C(OC)O7)c4)C31OO2 (stereo not drawn) [Compound 10, Trioxane Bis-ester Dimer], the Log10GI50 [1] was −7.15 M, the Log10LC50 [1] was >−4.30 M and the Log10TGI [1] was −5.70 M. The Log10GI50 [2] was −6.79 M, the Log10LC50 [2] was >−4.30 M and the Log10TGI [2] was −5.35 M. For the same molecule, the Log10GI50 ([3]; MOLT-4 (Leukemia)) was −7.68 M, the Log10LC50 [3, 34] was >−4.30 M and the Log10TGI [3, 34] was −6.53 M. For the same molecule, the Log10LC50 [3, 35] was −4.05 M, the Log10TGI [3, 35] was −5.80 M and the “drug concentration necessary to achieve primary growth inhibition (percentage growth +50)” value ([3]; MOLT-4, read from dose response curves FIGS. 10a-10e) was “less than 10^−7 molar”. For the same molecule, the Log10GI50 [4] was −6.97 M, the Log10LC50 [4] was >−4.30 M and the Log10TGI [4] was −5.73 M. The Log10GI50 [5] was <−8.30 M, the Log10LC50 [5] was >−4.30 M and the Log10TGI [5] was −7.49 M. For the same molecule, the Log10GI50 [6] was −5.89 M, the Log10LC50 [6] was >−4.30 M and the Log10TGI [6] was >−4.30 M. For the same molecule, the Log10GI50 [7] was −5.11 M, the Log10LC50 [7] was >−4.30 M and the Log10TGI [7] was >−4.30 M. For the same molecule, the Log10GI50 [8] was −5.64 M, the Log10LC50 [8] was >−4.30 M and the Log10TGI [8] was >−4.30 M. For the same molecule, the Log10GI50 [9] was >−4.30 M, the Log10LC50 [9] was >−4.30 M and the Log10TGI [9] was >−4.0 M. For the same molecule, the Log10GI50 [10] was −6.13 M, the Log10LC50 [10] was >−4.30 M and the Log10TGI [10] was >−4.30 M. It also gave a Log10GI50 [11] of −6.45 M, a Log10LC50 [11] of −4.48 M and a Log10TGI [11] of −5.18 M. The Log10GI50 [12] was −6.43 M, the Log10LC50 [12] was >−4.30 M and the Log10TGI [12] was >−4.30 M. The Log10GI50 [13] was −6.35 M, the Log10LC50 [13] was >−4.30 M and the Log10TGI [13] was >−4.30 M. For the same molecule, the Log10GI50 [14] was −5.97 M, the Log10LC50 [14] was >−4.30 M and the Log10TGI [14] was >−4.30 M. For the same molecule, the Log10GI50 [15] was −6.47 M, the Log10LC50 [15] was >−4.30 M and the Log10TGI [15] was >−4.30 M. The Log10GI50 [16] was −5.36 M, the Log10LC50 [16] was >−4.30 M and the Log10TGI [16] was >−4.30 M. For the same molecule, the Log10GI50 [17] was −5.01 M, the Log10LC50 [17] was >−4.30 M and the Log10TGI [17] was >−4.30 M. The Log10GI50 [18] was −5.56 M, the Log10LC50 [18] was >−4.30 M and the Log10TGI [18] was >−4.30 M. For the same molecule, the Log10GI50 [19] was −6.09 M, the Log10LC50 [19] was >−4.30 M and the Log10TGI [19] was >−4.30 M. For the same molecule, the Log10GI50 [20] was −5.08 M, the Log10LC50 [20] was >−4.30 M and the Log10TGI [20] was >−4.30 M. The Log10GI50 [21] was −4.94 M, the Log10LC50 [21] was >−4.30 M and the Log10TGI [21] was >−4.30 M. For the same molecule, the Log10GI50 [22] was −5.57 M, the Log10LC50 [22] was >−4.30 M and the Log10TGI [22] was >−4.30 M. For the same molecule, the Log10GI50 [23] was −5.68 M, the Log10LC50 [23] was >−4.30 M and the Log10TGI [23] was >−4.30 M. The Log10GI50 [24] was >−4.0 M, the Log10LC50 [24] was >−4.30 M and the Log10TGI [24] was >−4.30 M. For the same molecule, the Log10GI50 [25] was −5.68 M, the Log10LC50 [25] was >−4.30 M and the Log10TGI [25] was >−4.30 M. The Log10GI50 [26] was −5.57 M, the Log10LC50 [26] was >−4.30 M and the Log10TGI [26] was >−4.30 M. The Log10GI50 [27] was >−4.30 M, the Log10LC50 [27] was >−4.30 M and the Log10TGI [27] was >−4.30 M. The Log10GI50 [28] was −5.66 M, the Log10LC50 [28] was >−4.30 M and the Log10TGI [28] was >−4.30 M. For the same molecule, the Log10GI50 [29] was −5.96 M, the Log10LC50 [29] was >−4.30 M and the Log10TGI [29] was >−4.30 M. The Log10GI50 [30] was −7.09 M, the Log10LC50 [30] was >−4.30 M and the Log10TGI [30] was >−4.30 M. For the same molecule, the Log10GI50 [31] was −5.93 M, the Log10LC50 [31] was >−4.30 M and the Log10TGI [31] was >−4.30 M. The Log10GI50 [32] was −5.97 M, the Log10LC50 [32] was >−4.30 M and the Log10TGI [32] was >−4.30 M. For the same molecule, the Log10GI50 [33] was −6.76 M, the Log10LC50 [33] was >−4.30 M and the Log10TGI [33] was >−4.30 M.
